Values quoted from earlier work as cited in patent publication US20130287890A1, “INHIBITOR OF THE PRODUCTION OF ADVANCED GLYCATION END PRODUCTS” (UENO FINE CHEMICALS INDUSTRY, LTD., priority 2012, published 2013).

Conditions: background art; cited from earlier work

In the case of `N=C(N)NN` [Aminoguanidine, aminoguanidine], the adverse drug reactions is given as “hepatic impairment”.
